Calls of active or inactive are those of the source. The rule behind the calls is not given here.
Key:
PC-3 [1] = test: Antiproliferative activity against human PC-3 cells assessed as reduction in cell viability by MTT assay; type: functional, cell-based
DU-145 [2] = test: Antiproliferative activity against human DU-145 cells assessed as reduction in cell viability by MTT assay; type: functional, cell-based
[3] = target: T1, Forkhead box protein C2 (Homo sapiens) (UniProt Q99958); test: Induction of FOXC2 degradation in human PC-3 cells assessed as decrease in FOXC2 protein level at 20 uM incubated for 48 hrs by Western blot analysis; type: cell-based
T1 sequence (whole entry): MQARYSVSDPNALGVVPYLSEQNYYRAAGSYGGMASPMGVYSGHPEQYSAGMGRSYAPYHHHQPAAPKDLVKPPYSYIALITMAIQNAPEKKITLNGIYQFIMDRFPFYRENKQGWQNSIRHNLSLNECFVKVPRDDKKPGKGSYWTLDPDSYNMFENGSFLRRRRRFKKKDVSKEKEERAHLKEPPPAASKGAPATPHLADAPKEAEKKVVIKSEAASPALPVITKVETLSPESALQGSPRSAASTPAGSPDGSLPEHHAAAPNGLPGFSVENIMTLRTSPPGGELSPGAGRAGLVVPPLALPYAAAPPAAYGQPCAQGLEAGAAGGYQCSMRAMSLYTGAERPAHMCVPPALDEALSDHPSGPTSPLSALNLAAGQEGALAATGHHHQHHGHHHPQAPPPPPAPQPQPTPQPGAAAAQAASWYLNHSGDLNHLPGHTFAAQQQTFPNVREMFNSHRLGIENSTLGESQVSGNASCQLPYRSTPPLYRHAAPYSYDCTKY

DU-145 [4] = test: Inhibition of cancer stem cell activity in human DU-145 cells assessed as decrease in Nanog protein expression at 20 uM incubated for 48 hrs by Western blot analysis; type: functional, cell-based
LNCaP [5] = test: Synergistic antiproliferative activity against human LNCaP cells assessed as inhibition of cell growth in presence of docetaxel by MTT assay; type: functional, cell-based
PC-3 [6] = test: Antimetastatic activity in human PC-3 cells assessed as inhibition of cell invasion at 20 uM incubated for 24 hrs by transwell invasion assay; type: functional, cell-based
DU-145 [7] = test: Inhibition of epithelial mesenchymal transition in human DU-145 cells assessed as downregulation of Slug protein expression at 20 uM incubated for 48 hrs by Western blot analysis; type: functional, cell-based
PC-3 [8] = test: Effect on FOXC2 gene expression level in human PC-3 cells; type: functional, cell-based
PC-3 [9] = test: Inhibition of cancer stem cell activity in human PC-3 cells assessed as decrease in C-myc protein expression at 20 uM incubated for 48 hrs by Western blot analysis; type: functional, cell-based
PC-3 [10] = test: Inhibition of epithelial mesenchymal transition in human PC-3 cells assessed as downregulation of N-cadherin protein expression at 20 uM incubated for 48 hrs by Western blot analysis; type: functional, cell-based
DU-145 [11] = test: Inhibition of epithelial mesenchymal transition in human DU-145 cells assessed as upregulation of ZO-1 protein expression at 20 uM incubated for 48 hrs by Western blot analysis; type: functional, cell-based
PC-3 [12] = test: Synergistic antiproliferative activity against human PC-3 cells assessed as combination index incubated for 24 hrs in the presence of enzalutamide by MTT assay; type: functional
[13] = target: T1, Forkhead box protein C2 (Homo sapiens); test: Induction of FOXC2 degradation in human DU-145 cells assessed as decrease in FOXC2 protein level at 20 uM incubated for 48 hrs by Western blot analysis; type: cell-based
DU-145 [14] = test: Inhibition of cancer stem cell activity in human DU-145 cells assessed as decrease in KLF4 protein expression at 20 uM incubated for 48 hrs by Western blot analysis; type: functional, cell-based
DU-145 [15] = test: Antimetastatic activity in human DU-145 cells assessed as inhibition of cell invasion at 20 uM incubated for 24 hrs by transwell invasion assay; type: functional, cell-based
DU-145 [16] = test: Synergistic antiproliferative activity against human DU-145 cells assessed as combination index incubated for 24 hrs in the presence of enzalutamide by MTT assay; type: functional
PC-3 [17] = test: Inhibition of epithelial mesenchymal transition in human PC-3 cells assessed as upregulation of ZO-1 protein expression at 20 uM incubated for 48 hrs by Western blot analysis; type: functional, cell-based
DU-145 [18] = test: Inhibition of cancer stem cell activity in human DU-145 cells assessed as decrease in C-myc protein expression at 20 uM incubated for 48 hrs by Western blot analysis; type: functional, cell-based
DU-145 [19] = test: Synergistic antiproliferative activity against human DU-145 cells assessed as reduction in cell viability incubated for 24 hrs in the presence of docetaxel by MTT assay; type: functional, cell-based
DU-145 [20] = test: Effect on FOXC2 gene expression level in human DU-145 cells; type: functional, cell-based
PC-3 [21] = test: Inhibition of epithelial mesenchymal transition in human PC-3 cells assessed as downregulation of Vimentin protein expression at 20 uM incubated for 48 hrs by Western blot analysis; type: functional, cell-based
LNCaP [22] = test: Antimetastatic activity in human LNCaP cells assessed as inhibition of cell invasion by measuring change in number of invading cells by transwell invasion assay; type: functional, cell-based
PC-3 [23] = test: Inhibition of epithelial mesenchymal transition in human PC-3 cells assessed as downregulation of ZEBI protein expression at 20 uM incubated for 48 hrs by Western blot analysis; type: functional, cell-based
DU-145 [24] = test: Inhibition of epithelial mesenchymal transition in human DU-145 cells assessed as upregulation of E-cadherin protein expression at 20 uM incubated for 48 hrs by Western blot analysis; type: functional, cell-based
PC-3 [25] = test: Inhibition of epithelial mesenchymal transition in human PC-3 cells assessed as downregulation of Slug protein expression at 20 uM incubated for 48 hrs by Western blot analysis; type: functional, cell-based
PC-3 [26] = test: Inhibition of cancer stem cell activity in human PC-3 cells assessed as decrease in Nanog protein expression at 20 uM incubated for 48 hrs by Western blot analysis; type: functional, cell-based
PC-3 [27] = test: Inhibition of epithelial mesenchymal transition in human PC-3 cells assessed as upregulation of E-cadherin protein expression at 20 uM incubated for 48 hrs by Western blot analysis; type: functional, cell-based
PC-3 [28] = test: Synergistic antiproliferative activity against human PC-3 cells assessed as reduction in cell viability incubated for 24 hrs in the presence of docetaxel by MTT assay; type: functional, cell-based
PC-3 [29] = test: Inhibition of cancer stem cell activity in human PC-3 cells assessed as decrease in KLF4 protein expression at 20 uM incubated for 48 hrs by Western blot analysis; type: functional, cell-based
DU-145 [30] = test: Inhibition of epithelial mesenchymal transition in human DU-145 cells assessed as downregulation of Vimentin protein expression at 20 uM incubated for 48 hrs by Western blot analysis; type: functional, cell-based
DU-145 [31] = test: Inhibition of epithelial mesenchymal transition in human DU-145 cells assessed as downregulation of N-cadherin protein expression at 20 uM incubated for 48 hrs by Western blot analysis; type: functional, cell-based
DU-145 [32] = test: Inhibition of epithelial mesenchymal transition in human DU-145 cells assessed as downregulation of ZEBI protein expression at 20 uM incubated for 48 hrs by Western blot analysis; type: functional, cell-based

Compound `CC(=O)O[C@@]12CO[C@@H]1C[C@H](O)[C@@]1(C)C(=O)[C@H](O)C3=C(C)[C@@H](OC(=O)[C@H](O)[C@@H](NC(=O)OC(C)(C)C)c4ccccc4)C[C@@](O)([C@@H](OC(=O)c4ccccc4)[C@H]21)C3(C)C` [DOCETAXEL ANHYDROUS] has an EC50 (PC-3 [1]) of 0.0076 µM and an EC50 (DU-145 [2]) of 0.00605 µM.

For `N=C(N)NCCCCNc1nc(Nc2ccc(Oc3ccccc3)cc2)nc(N2CCN(c3nc(N)nc(Nc4ccc(N5CCOCC5)cc4)n3)CC2)n1`, the Activity [3] was “Active”, the inhibition (DU-145 [4]) was “Active” and the Activity (LNCaP [5]) was “inactive”. The Activity (PC-3 [6]) was “Active”, the inhibition (DU-145 [7]) was “Active” and the Activity (PC-3 [8]) was “inactive”. For the same compound, the inhibition (PC-3 [9]) was “Active”, the inhibition (PC-3 [10]) was “Active” and the inhibition (DU-145 [11]) was “Active”. The CI (PC-3 [12]) was greater than 1, the Activity [13] was “Active” and the inhibition (DU-145 [14]) was “Active”. For the same compound, the Activity (DU-145 [15]) was “Active”, the CI (DU-145 [16]) was greater than 1 and the inhibition (PC-3 [17]) was “Active”. For the same compound, the inhibition (DU-145 [18]) was “Active”, the EC50 (PC-3 [1]) was 53.2 µM and the Activity (DU-145 [19]) was “Active”. The Activity (DU-145 [20]) was “inactive”, the inhibition (PC-3 [21]) was “Active” and the Activity (LNCaP [22]) was “inactive”. The inhibition (PC-3 [23]) was “Active”, the EC50 (DU-145 [2]) was 48.1 µM and the inhibition (DU-145 [24]) was “Active”. For the same compound, the inhibition (PC-3 [25]) was “Active”, the inhibition (PC-3 [26]) was “Active” and the inhibition (PC-3 [27]) was “Active”. For the same compound, the Activity (PC-3 [28]) was “Active”, the inhibition (PC-3 [29]) was “Active” and the inhibition (DU-145 [30]) was “Active”. The inhibition (DU-145 [31]) was “Active” and the inhibition (DU-145 [32]) was “Active”.

For `CNC(=O)c1ccc(N2C(=S)N(c3ccc(C#N)c(C(F)(F)F)c3)C(=O)C2(C)C)cc1F`, the Activity (PC-3 [1]) was “inactive” and the Activity (DU-145 [2]) was “inactive”.
